Assay: Relative stability of the crystalline forms of Efavirenz
Assay type: physicochemical
Procedure: Five Forms designated as Form 1, Form 2, Form 3, form 4, Form 5 have been identified. Each Form is distinguishable from the other forms by x-ray powder diffraction (XRD) and differential scanning calorimetry (DSC). Each form can be isolated in substantially pure form under the conditions described. Further, the forms may be interconverted by procedures taught herein.
It has a melting point of about 138° C. to about 140° C., which is the highest of the four forms. Due to its increased stability, it is commonly used for drug formulation. All other forms may be converted into Form 1 during drying at about 60° C. to about 110° C. Conversion and drying is preferably done in a dryer oven at about 70° C. to about 110° C. under reduced pressure. More preferred is about 75° C. to about 85° C. Form 5 is converted to Form 1 by heating to 95° C under reduced pressure. Forms 2 and 3 may also be converted into Form 1 using a hydrocarbon slurry at about 65° C. to about 75° C. Heptane is the most preferred hydrocarbon for this conversion. Form 4, however, may not convert to Form 1 under these conditions because it is soluble at about 70° C. Form 1 may be directly crystallized from heptane when the saturated solution is seeded at about 60° C. to about 75° C. and held at about this temperature until Form 1 starts crystallizing.
The thermal properties of Efavirenz were characterized with differential scanning calorimetry using a TA Instruments DSC 910, with data analysis via a TA Instruments Thermal Analyzer 2100. Samples were placed in sealed aluminum pans for analysis with an empty aluminum pan serving as the reference. Heating rates of 5° C. per minute or 10° C. per minute were employed over a temperature range of 25° C. to 200° C. The instrument was calibrated with a indium standard.

With `O=C1Nc2ccc(Cl)cc2[C@@](C#CC2CC2)(C(F)(F)F)O1` [Form 1, (S)-6-chloro-4-cyclopropylethynyl-4-trifluoromethyl-1,4-dihydro-2H-3,1-benzoxazin-2-one] the “thermodynamic stability among the crystalline forms” value (solid forms compared, highest melting point) was “most thermodynamically stable form”.

With `O=C1Nc2ccc(Cl)cc2[C@@](C#CC2CC2)(C(F)(F)F)O1` [Form 2, (S)-6-chloro-4-cyclopropylethynyl-4-trifluoromethyl-1,4-dihydro-2H-3,1-benzoxazin-2-one] the stability (inferred from the melting point observed by differential scanning calorimetry) was “exceptional stability”.

For `O=C1Nc2ccc(Cl)cc2[C@@](C#CC2CC2)(C(F)(F)F)O1` [Form 3, (S)-6-chloro-4-cyclopropylethynyl-4-trifluoromethyl-1,4-dihydro-2H-3,1-benzoxazin-2-one], the “stability of the form in solution slurries” value (solution slurries of Efavirenz at room temperature) was “most stable form”.

For `O=C1Nc2ccc(Cl)cc2[C@@](C#CC2CC2)(C(F)(F)F)O1` [Form 5, (S)-6-chloro-4-cyclopropylethynyl-4-trifluoromethyl-1,4-dihydro-2H-3,1-benzoxazin-2-one], the “thermodynamic stability among the crystalline forms” value (below 40° C.) was “most thermodynamically stable crystalline form”.

Reference: patent publication US6673372B1, “Crystalline Efavirenz” (Bristol-Myers Squibb Pharma Company, priority 1998, dated 2004)
